# Results: patent US7407914B2, “Herbicide composition” (Sumitomo Chemical Company, Limited, priority 2001, dated 2008)
# System: broadleaf signalgrass
# Experiment: Foliar spray herbicide effect test in greenhouse pots (Test Example 1)
# Format: in vivo, Brachiaria platyphylla
# Conditions: evaluated 5 days after treatment, level 0-10
# Method: Evaluation of phytotoxicity against a crop was shown by “no” when almost no phytotoxicity was observed, “low” when a low level phytotoxicity was observed, “medium” when a medium level phytotoxicity was observed and “high” when a high level phytotoxicity was observed.
# A plastic pot of 11 cm in diameter and 8 cm in depth was filled with field soil. A seed of broadleaf signalgrass was sown and grown in a greenhouse for 28 days.
# An emulsion of Compound A-1 was prepared by sufficiently mixing […] of Compound A-1, 6 parts of Sorpol 3005× (surfactant, produced by Toho Chemical) and 89 parts of xylene.
# Each of • single use of an emulsion of Compound A-1, • single use of a formulation of Flumioxazin (commercial name: Pledge, produced by Sumitomo Chemical, containing 50% of Flumioxazin), • single use of a formulation of Sulfentrazone (commercial name: Authority, produced by Du Pont, containing 75% of Sulfentrazone), • a mixed composition of an emulsion of Compound A-1 and a formulation of Flumioxazin, and • a mixed composition of an emulsion of Compound A-1 and a solution of Sulfentrazone • were diluted with water containing 1% Agri-dex (produced by Helena). […]
# After the treatment, they were raised in a greenhouse for 5 days and the effect against weeds was evaluated. In addition, after 14 days of the treatment, the phytotoxicity to soybean was evaluated.
smiles,measurement,setting,value
"Cc1nn(-c2cc(NS(C)(=O)=O)c(Cl)cc2Cl)c(=O)n1C(F)F [Sulfentrazone, N-[2,4-dichloro-5-[4-(difluoromethyl)-4,5-dihydro-3-methyl-5-oxo-1H-1,2,4-triazol-1-yl]phenyl]methanesulfonamide]",Herbicide Effect Broad signalgrass,200 g/ha active ingredient,1
same,Herbicide Effect Broad signalgrass,1200 g/ha active ingredient,3
